Tested on: HUVEC/MSC spheroids viability
Assay: Human HUVEC/MSC cell line growth inhibition [KRAS2];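 on viability, T/C: percent of DMSO vehicle control luminescence so 100% = untreated viability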
Details: for IC50: curve of first compound; for viability, T/C: stronger effect = lower value
In short: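 HUVEC + hMSC stromal spheroids only, no malignant cells; 37 °C, 5% CO2. Drugs singly and in pairs, half-log series down from clinical Cmax (max 10 microM if Cmax undetermined).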

[1] = second compound 0.0316 µM, first compound 0.0316 µM
[2] = second compound 0.0316 µM, first compound 0.1 µM
[3] = second compound 0.0316 µM, first compound 0.316 µM
[4] = second compound 0.0316 µM, first compound 1 µM
[5] = second compound 0.0316 µM, first compound 3.16 µM
[6] = second compound 0.0316 µM, first compound 10 µM
[7] = second compound 0.1 µM, first compound 0.0316 µM
[8] = second compound 0.1 µM, first compound 0.1 µM
[9] = second compound 0.1 µM, first compound 0.316 µM
[10] = second compound 0.1 µM, first compound 1 µM
[11] = second compound 0.1 µM, first compound 3.16 µM
[12] = second compound 0.1 µM, first compound 10 µM
[13] = second compound 0.316 µM, first compound 0.0316 µM
[14] = second compound 0.316 µM, first compound 0.1 µM
[15] = second compound 0.316 µM, first compound 0.316 µM
[16] = second compound 0.316 µM, first compound 1 µM
[17] = second compound 0.316 µM, first compound 3.16 µM
[18] = second compound 0.316 µM, first compound 10 µM
[19] = second compound 1 µM, first compound 0.0316 µM
[20] = second compound 1 µM, first compound 0.1 µM
[21] = second compound 1 µM, first compound 0.316 µM
[22] = second compound 1 µM, first compound 1 µM
[23] = second compound 1 µM, first compound 3.16 µM
[24] = second compound 1 µM, first compound 10 µM
[25] = second compound 3.16 µM, first compound 0.0316 µM
[26] = second compound 3.16 µM, first compound 0.1 µM
[27] = second compound 3.16 µM, first compound 0.316 µM
[28] = second compound 3.16 µM, first compound 1 µM
[29] = second compound 3.16 µM, first compound 3.16 µM
[30] = second compound 3.16 µM, first compound 10 µM
[31] = second compound 10 µM, first compound 0.0316 µM
[32] = second compound 10 µM, first compound 0.1 µM
[33] = second compound 10 µM, first compound 0.316 µM
[34] = second compound 10 µM, first compound 1 µM
[35] = second compound 10 µM, first compound 3.16 µM
[36] = second compound 10 µM, first compound 10 µM

CC1COCCN1c1cc(-c2ccnn2C)c2ccnc(-c3ccn[nH]3)c2n1 (stereo not drawn) + CNCc1ccccc1-c1csc(C(C)Nc2nc(C)nc3cc(OC)c(OC)cc23)c1
IC50 (second compound 0.0316 µM): 1.61 µM
IC50 (second compound 0.1 µM): 3 µM
IC50 (second compound 0.316 µM): 1.77 µM
IC50 (second compound 1 µM): 1.26 µM
IC50 (second compound 3.16 µM): > 3 µM
IC50 (second compound 10 µM): < 0.00949 µM
viability, T/C (second compound 0.0316 µM, first compound 0.00949 µM): 102%
viability, T/C (second compound 0.0316 µM, first compound 0.03 µM): 96.5%
viability, T/C (second compound 0.0316 µM, first compound 0.0949 µM): 87%
viability, T/C (second compound 0.0316 µM, first compound 0.3 µM): 74.9%
viability, T/C (second compound 0.0316 µM, first compound 0.949 µM): 54.1%
viability, T/C (second compound 0.0316 µM, first compound 3 µM): 43.8%
viability, T/C (second compound 0.1 µM, first compound 0.00949 µM): 88.4%
viability, T/C (second compound 0.1 µM, first compound 0.03 µM): 98.8%
viability, T/C (second compound 0.1 µM, first compound 0.0949 µM): 105%
viability, T/C (second compound 0.1 µM, first compound 0.3 µM): 78.2%
viability, T/C (second compound 0.1 µM, first compound 0.949 µM): 63.1%
viability, T/C (second compound 0.1 µM, first compound 3 µM): 48.3%
viability, T/C (second compound 0.316 µM, first compound 0.00949 µM): 97.5%
viability, T/C (second compound 0.316 µM, first compound 0.03 µM): 95.1%
viability, T/C (second compound 0.316 µM, first compound 0.0949 µM): 74%
viability, T/C (second compound 0.316 µM, first compound 0.3 µM): 66.7%
viability, T/C (second compound 0.316 µM, first compound 0.949 µM): 60.4%
viability, T/C (second compound 0.316 µM, first compound 3 µM): 42.8%
viability, T/C (second compound 1 µM, first compound 0.00949 µM): 85.8%
viability, T/C (second compound 1 µM, first compound 0.03 µM): 78%
viability, T/C (second compound 1 µM, first compound 0.0949 µM): 70.6%
viability, T/C (second compound 1 µM, first compound 0.3 µM): 67.1%
viability, T/C (second compound 1 µM, first compound 0.949 µM): 54.8%
viability, T/C (second compound 1 µM, first compound 3 µM): 37.7%
viability, T/C (second compound 3.16 µM, first compound 0.00949 µM): 94%
viability, T/C (second compound 3.16 µM, first compound 0.03 µM): 101%
viability, T/C (second compound 3.16 µM, first compound 0.0949 µM): 92.6%
viability, T/C (second compound 3.16 µM, first compound 0.3 µM): 81.8%
viability, T/C (second compound 3.16 µM, first compound 0.949 µM): 80.1%
viability, T/C (second compound 3.16 µM, first compound 3 µM): 67.6%
viability, T/C (second compound 10 µM, first compound 0.00949 µM): 0.34%
viability, T/C (second compound 10 µM, first compound 0.03 µM): 0.43%
viability, T/C (second compound 10 µM, first compound 0.0949 µM): 0.45%
viability, T/C (second compound 10 µM, first compound 0.3 µM): 0.45%
viability, T/C (second compound 10 µM, first compound 0.949 µM): 0.4%
viability, T/C (second compound 10 µM, first compound 3 µM): 0.37%

CC1OCC2(CCN(c3cnc(Sc4ccnc(N)c4Cl)c(N)n3)CC2)C1N (stereo not drawn) + CNCc1ccccc1-c1csc(C(C)Nc2nc(C)nc3cc(OC)c(OC)cc23)c1
IC50 (second compound 0.0316 µM): > 10 µM
IC50 (second compound 0.1 µM): 6.91 µM
IC50 (second compound 0.316 µM): 6.2 µM
IC50 (second compound 1 µM): 6.91 µM
IC50 (second compound 3.16 µM): 4.95 µM
IC50 (second compound 10 µM): < 0.0316 µM
viability, T/C [1]: 90.2%
viability, T/C [2]: 104%
viability, T/C [3]: 86.8%
viability, T/C [4]: 80.1%
viability, T/C [5]: 83.1%
viability, T/C [6]: 51.9%
viability, T/C [7]: 94.5%
viability, T/C [8]: 108%
viability, T/C [9]: 90.4%
viability, T/C [10]: 74.2%
viability, T/C [11]: 68%
viability, T/C [12]: 42.5%
viability, T/C [13]: 90.2%
viability, T/C [14]: 81.9%
viability, T/C [15]: 78.2%
viability, T/C [16]: 69.9%
viability, T/C [17]: 70.3%
viability, T/C [18]: 38.5%
viability, T/C [19]: 74.6%
viability, T/C [20]: 104%
viability, T/C [21]: 79.1%
viability, T/C [22]: 67.4%
viability, T/C [23]: 68.8%
viability, T/C [24]: 42.5%
viability, T/C [25]: 90.8%
viability, T/C [26]: 98.7%
viability, T/C [27]: 82%
viability, T/C [28]: 89.2%
viability, T/C [29]: 78.9%
viability, T/C [30]: 4.77%
viability, T/C [31]: 0.35%
viability, T/C [32]: 0.39%
viability, T/C [33]: 0.53%
viability, T/C [34]: 0.42%
viability, T/C [35]: 0.4%
viability, T/C [36]: 0.25%

CCNC(=O)CC1N=C(c2ccc(Cl)cc2)c2cc(OC)ccc2-n2c(C)nnc21 (stereo not drawn) + CNCc1ccccc1-c1csc(C(C)Nc2nc(C)nc3cc(OC)c(OC)cc23)c1
IC50 (second compound 0.0316 µM): > 10 µM
IC50 (second compound 0.1 µM): > 10 µM
IC50 (second compound 0.316 µM): > 10 µM
IC50 (second compound 1 µM): > 10 µM
IC50 (second compound 3.16 µM): > 10 µM
IC50 (second compound 10 µM): < 0.0316 µM
viability, T/C [1]: 89.8%
viability, T/C [2]: 96.4%
viability, T/C [3]: 88%
viability, T/C [4]: 106%
viability, T/C [5]: 114%
viability, T/C [6]: 115%
viability, T/C [7]: 96.8%
viability, T/C [8]: 91.3%
viability, T/C [9]: 109%
viability, T/C [10]: 92.6%
viability, T/C [11]: 120%
viability, T/C [12]: 122%
viability, T/C [13]: 75.2%
viability, T/C [14]: 86.6%
viability, T/C [15]: 91.3%
viability, T/C [16]: 109%
viability, T/C [17]: 94.1%
viability, T/C [18]: 93.7%
viability, T/C [19]: 69.5%
viability, T/C [20]: 105%
viability, T/C [21]: 98.5%
viability, T/C [22]: 99.4%
viability, T/C [23]: 127%
viability, T/C [24]: 99.1%
viability, T/C [25]: 86.8%
viability, T/C [26]: 93.6%
viability, T/C [27]: 117%
viability, T/C [28]: 97.3%
viability, T/C [29]: 108%
viability, T/C [30]: 114%
viability, T/C [31]: 0.39%
viability, T/C [32]: 0.34%
viability, T/C [33]: 0.4%
viability, T/C [34]: 0.52%
viability, T/C [35]: 0.39%
viability, T/C [36]: 0.43%

Cn1nccc1Nc1nccc(-c2cc3c(s2)C(C)(C)N(CCN2CCOCC2)C3=O)n1 + CNCc1ccccc1-c1csc(C(C)Nc2nc(C)nc3cc(OC)c(OC)cc23)c1
IC50 (second compound 0.0316 µM): 2.14 µM
IC50 (second compound 0.1 µM): 2.49 µM
IC50 (second compound 0.316 µM): 2.59 µM
IC50 (second compound 1 µM): 2.39 µM
IC50 (second compound 3.16 µM): 1.97 µM
IC50 (second compound 10 µM): < 0.0316 µM
viability, T/C [1]: 94.5%
viability, T/C [2]: 119%
viability, T/C [3]: 117%
viability, T/C [4]: 94.7%
viability, T/C [5]: 26.9%
viability, T/C [6]: 3.31%
viability, T/C [7]: 85.8%
viability, T/C [8]: 103%
viability, T/C [9]: 105%
viability, T/C [10]: 110%
viability, T/C [11]: 36.7%
viability, T/C [12]: 3.17%
viability, T/C [13]: 88.2%
viability, T/C [14]: 96.1%
viability, T/C [15]: 103%
viability, T/C [16]: 111%
viability, T/C [17]: 39.6%
viability, T/C [18]: 1.89%
viability, T/C [19]: 83%
viability, T/C [20]: 90.5%
viability, T/C [21]: 103%
viability, T/C [22]: 96.7%
viability, T/C [23]: 36.2%
viability, T/C [24]: 0.95%
viability, T/C [25]: 102%
viability, T/C [26]: 135%
viability, T/C [27]: 128%
viability, T/C [28]: 99.9%
viability, T/C [29]: 15.4%
viability, T/C [30]: 0.23%
viability, T/C [31]: 0.35%
viability, T/C [32]: 0.4%
viability, T/C [33]: 0.48%
viability, T/C [34]: 0.37%
viability, T/C [35]: 0.37%
viability, T/C [36]: 0.19%
